Test results as given in publication PMC4191062, “Development of αGlcN(1↔1)αMan-Based Lipid A Mimetics as a Novel Class of Potent Toll-like Receptor 4 Agonists” (Journal of Medicinal Chemistry, 2014).

Test system: bone marrow-derived macrophages (BMDM)
Test: TNF-α and IL-6 production in mouse bone marrow-derived macrophages (ELISA)
Assay type: cell-based, C57BL/6J mice
Settings: mBMDM, 1 nM (1.8 ng/mL), 16 h
Description: The ability of Lipid A mimetics 1–3 to induce the production of TNF-α and IL-6 from bone marrow-derived macrophages (BMDM) in mice was subsequently examined and compared to that of synthetic E. coli Lipid A and E. coli MPLA, which are reliable positive controls due to their chemical purity and homogeneity (Figure 6). […] Likewise, 1 nM (1.8 ng/mL) of 1 or 2 triggered the release of a 3-fold higher amount of IL-6 (1500 pg/mL) compared to Lipid A (500 pg/mL).
Bone-marrow-derived microphages (BMDMs) were isolated and differentiated from the bone marrow of C57BL/6J mice. The bone marrow was flushed from femur and fibia with RPMI media. The erythrocytes were lysed with 0.88% ammonium chloride, 15 min at 37 °C. A single-cell suspension of the bone marrow cells was then seeded in cell culture flasks at a concentration of 1 × 10^6 cells/mL in RPMI supplemented with 20% FBS and 40 ng/mL recombinant M-CSF. The cell culture medium was changed on day 3. On day 6, the differentiated cells were trypsinized, counted, and seeded in 24-well plates at a concentration of 1 × 10^6 cells/mL in RPMI supplemented with 10% FBS. After 24 h, the cells were stimulated with Lipid A mimetics 1–3 and with synthetic E. coli Lipid A/MPLA (E. coli O111:B4 LPS was used as positive control) for 16 h. The nanomolar concentrations of 1–3 were calculated according to the MW of the synthetic compounds. The supernatants were then tested for cytokines using Ready-Set-Go ELISA kits (eBioscience).

Work on `CCCCCCCCCCCCCC(=O)O[C@H](CCCCCCCCCCC)CC(=O)N[C@H]1[C@H](OC[C@H]2O[C@H](OP(=O)(O)O)[C@H](NC(=O)C[C@H](O)CCCCCCCCCCC)[C@@H](OC(=O)C[C@H](O)CCCCCCCCCCC)[C@@H]2O)O[C@H](CO)[C@@H](OP(=O)(O)O)[C@@H]1OC(=O)C[C@@H](CCCCCCCCCCC)OC(=O)CCCCCCCCCCCCC` [Lipid A] yielded an IL-6 release of 500 pg/mL.
